Key:
[1] = biological target: T1, RasGRP3 (Homo sapiens, UniProt Q8IV61); experiment: competition radioligand binding with [3H]phorbol […],13-dibutyrate, […]°C
T1 construct: full-length
T1 sequence (Q8IV61 1-690): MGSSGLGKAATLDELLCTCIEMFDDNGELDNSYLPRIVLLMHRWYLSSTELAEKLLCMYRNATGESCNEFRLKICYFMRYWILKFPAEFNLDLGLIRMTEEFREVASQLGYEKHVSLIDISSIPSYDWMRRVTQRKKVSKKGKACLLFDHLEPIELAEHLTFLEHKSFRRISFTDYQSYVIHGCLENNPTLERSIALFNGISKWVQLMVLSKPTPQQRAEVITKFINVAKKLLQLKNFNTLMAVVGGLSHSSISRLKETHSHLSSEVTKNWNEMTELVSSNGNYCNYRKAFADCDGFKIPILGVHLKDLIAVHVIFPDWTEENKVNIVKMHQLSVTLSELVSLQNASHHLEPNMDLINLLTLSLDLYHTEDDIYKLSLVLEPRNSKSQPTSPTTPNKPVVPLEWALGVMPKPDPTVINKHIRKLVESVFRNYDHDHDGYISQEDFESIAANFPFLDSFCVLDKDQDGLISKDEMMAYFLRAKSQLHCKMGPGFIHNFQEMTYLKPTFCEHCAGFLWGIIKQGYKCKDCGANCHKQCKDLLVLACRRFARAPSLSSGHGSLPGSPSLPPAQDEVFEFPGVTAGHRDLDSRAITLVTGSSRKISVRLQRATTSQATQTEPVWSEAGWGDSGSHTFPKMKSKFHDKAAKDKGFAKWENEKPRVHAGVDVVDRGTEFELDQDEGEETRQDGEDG

[2] = biological target: T1, RasGRP3; experiment: [3H]PDBu radioligand binding

SMILES | Kd [1] [nM] | Kd [2] [nM]
C/C=C(/C)C(=O)O[C@H]1C(C)=C[C@]23C(=O)[C@@H](C=C(CO)[C@@H](O)[C@]12O)[C@H]1[C@@H](C[C@H]3C)C1(C)C [I3A, Ingenol-3-angelate] | 0.045 ± 0.005 | –
CCCC(=O)O[C@@H]1[C@@H](C)[C@@]2(O)[C@@H](C=C(CO)C[C@]3(O)C(=O)C(C)=C[C@@H]23)[C@@H]2C(C)(C)[C@]12OC(=O)CCC [PDBu, phorbol 12,13-dibutyrate] | – | 0.42 ± 0.03

— article PMC3749120, “RasGRPs Are Targets of the Anti-Cancer Agent Ingenol-3-Angelate” (PLoS ONE, 2013)
